Laboratory results as given in publication PMC4286809, “Crystallographic and spectroscopic snapshots reveal a dehydrogenase in action” (Nature Communications, 2015).

Assays:
[1] = target: T1, 2-aminomuconate-6-semialdehyde dehydrogenase (AMSDH) (Pseudomonas fluorescens, UniProt Q83V33, R120A); assay: steady-state kinetics (Km, lower bound); assay type: biochemical
T1 construct: gene nbaE
T1 sequence (Q83V33 1-500 R120A): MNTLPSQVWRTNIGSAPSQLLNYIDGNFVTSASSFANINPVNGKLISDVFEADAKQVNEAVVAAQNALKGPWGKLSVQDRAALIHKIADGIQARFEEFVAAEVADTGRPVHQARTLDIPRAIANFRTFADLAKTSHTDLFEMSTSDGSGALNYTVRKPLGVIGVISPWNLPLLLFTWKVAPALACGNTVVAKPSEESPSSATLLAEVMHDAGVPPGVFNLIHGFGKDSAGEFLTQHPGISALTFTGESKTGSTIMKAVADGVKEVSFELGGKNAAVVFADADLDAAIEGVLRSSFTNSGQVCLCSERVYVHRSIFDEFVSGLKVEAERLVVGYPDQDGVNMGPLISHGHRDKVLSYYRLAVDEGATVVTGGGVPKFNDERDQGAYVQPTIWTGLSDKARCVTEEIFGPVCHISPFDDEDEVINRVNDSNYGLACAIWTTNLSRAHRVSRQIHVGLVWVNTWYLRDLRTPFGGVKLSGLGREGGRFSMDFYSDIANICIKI

[2] = target: T2, 2-aminomuconate-6-semialdehyde dehydrogenase (AMSDH) (Pseudomonas fluorescens, UniProt Q83V33, R464A); assay: steady-state kinetics; substrate inhibition Ki (Km […]); assay type: biochemical
T2 construct: gene nbaE

[3] = target: T3, 2-aminomuconate-6-semialdehyde dehydrogenase (AMSDH) (Pseudomonas fluorescens, UniProt Q83V33, E268A); assay: crystal structures of thiohemiacetal (4OU2) and thioacyl (4OUB) adducts; ESI mass spectrometry; absorption titration; assay type: binding
T3 construct: gene nbaE
T3 sequence (Q83V33 1-500 E268A): T1 sequence (Q83V33 1-500 R120A)

[4] = target: T4, 2-aminomuconate-6-semialdehyde dehydrogenase (AMSDH) (Pseudomonas fluorescens, UniProt Q83V33); assay: crystal structure of co-crystallized binary complex ([…] Å); assay type: binding
T4 construct: gene nbaE
T4 sequence (Q83V33 1-500): T1 sequence (Q83V33 1-500 R120A)

[5] = target: the molecule itself; assay: crystal structure; wild-type AMSDH, ligand-free, with NAD+, with NAD+ and 2-AMS or 2-HMS, and as thioacyl intermediate; space group P212121; four polypeptides per asymmetric unit
purified protein = substrate: O=C/C=C/C=C(/O)C(=O)O; assay: purified protein; assay type: biochemical, Pseudomonas fluorescens; conditions: NAD+ active site; bifurcated hydrogen bonds with Arg120 and Arg464; C6 becomes covalently bound to Cys302 in the later thioacyl intermediate (4NPI)

## O=C/C=C/C=C(/O)C(=O)O [2-HMS, 2-hydroxymuconate-6-semialdehyde]
[1]
  Km: > 446 µM
[2]
  Ki: ~6 µM
[3]
  crystal structures of thiohemiacetal (4OU2) and thioacyl (4OUB) adducts; ESI mas: a continuous electron density between Cys302-SG and 2-HMS-C6 is observed

## NC(=O)c1ccc[n+]([C@@H]2O[C@H](COP(=O)([O-])OP(=O)(O)OC[C@H]3O[C@@H](n4cnc5c(N)ncnc54)[C@H](O)[C@@H]3O)[C@@H](O)[C@H]2O)c1 [NAD+, NAD^+]
[4]
  crystal structure of co-crystallized binary complex (2.00 Å): an NAD^+ molecule is present in an extended, anti-conformation in the amino-terminal, co-substrate-binding domain of each monomer

B1: 2-aminomuconate-6-semialdehyde dehydrogenase from Pseudomonas fluorescens, wild type (enzyme, UniProt Q83V33 1-500, looked up)
chain: T1 sequence (Q83V33 1-500 R120A)
notes: 2-aminomuconate-6-semialdehyde dehydrogenase (AMSDH), Pseudomonas fluorescens; also called AMSDH; wild-type AMSDH; source: E. coli overexpression system, purified
[5]
  stoichiometry N: 4
Purified protein
  Km: 10.4 ± 0.2 µM
